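48-hour exposure; five concentrations; linearly interpolated endpoints. Here, GI50 denotes the concentration required for 50% inhibition of growth.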 Calls of active or inactive are those of the source. Rule as the data show it: active = GI50 up to about 1.1 µM and inactive = higher.
Assays:
Experiment in all cases: growth of human tumour cells (NCI), 48 h
M14 = test system: M14
OVCAR-5 = test system: OVCAR-5
CAKI-1 = test system: CAKI-1
SF-539 = test system: SF-539
XF498 = test system: XF498
K562 = test system: K562
ACHN = test system: ACHN
NCI-H226 = test system: NCI-H226
A549 = test system: A549
EKVX = test system: EKVX
SF-268 = test system: SF-268
M19-MEL = test system: M19-MEL
HCC 2998 = test system: HCC 2998
IGROV-1 = test system: IGROV-1
SW-620 = test system: SW-620
HOP-62 = test system: HOP-62
SK-OV-3 = test system: SK-OV-3
COLO 205 = test system: COLO 205
A498 = test system: A498
SK-MEL-2 = test system: SK-MEL-2
KM-20L2 = test system: KM-20L2
RXF 393 = test system: RXF 393
UACC-257 = test system: UACC-257
HL-60 = test system: HL-60
U-251 = test system: U-251
MOLT-4 = test system: MOLT-4
LXFL 529 = test system: LXFL 529
RXF 631 = test system: RXF 631
DMS-273 = test system: DMS-273
NCI-H460 = test system: NCI-H460
HCT-116 = test system: HCT-116
786-0 = test system: 786-0
OVCAR-8 = test system: OVCAR-8
CCRF-CEM = test system: CCRF-CEM
DLD-1 = test system: DLD-1
UACC-62 = test system: UACC-62
SF-295 = test system: SF-295
SNB-75 = test system: SNB-75
SNB-78 = test system: SNB-78
OVCAR-4 = test system: OVCAR-4
SN12C = test system: SN12C
SR = test system: SR
SK-MEL-28 = test system: SK-MEL-28
NCI-H522 = test system: NCI-H522
HT-29 = test system: HT-29
KM12 = test system: KM12
UO-31 = test system: UO-31
NCI-H23 = test system: NCI-H23
TK-10 = test system: TK-10
Malme-3M = test system: Malme-3M
SNB-19 = test system: SNB-19
SK-MEL-5 = test system: SK-MEL-5
OVCAR-3 = test system: OVCAR-3
LOX IMVI = test system: LOX IMVI
HCT-15 = test system: HCT-15
RPMI-8226 = test system: RPMI-8226
HOP-18 = test system: HOP-18
DMS-114 = test system: DMS-114
HOP-92 = test system: HOP-92

Measured: GI50

COc1ccc(OC)c2[s+]snc12
inactive: M14 63.2 µM | OVCAR-5 > 100 µM | CAKI-1 > 100 µM | SF-539 21.4 µM | XF498 45.3 µM | K562 34.5 µM | ACHN 91.2 µM | NCI-H226 > 100 µM | A549 40.1 µM | EKVX > 100 µM | SF-268 52.6 µM | M19-MEL 15.8 µM | HCC 2998 > 100 µM | IGROV-1 > 100 µM | SW-620 68.2 µM | HOP-62 > 100 µM | SK-OV-3 > 100 µM | COLO 205 > 100 µM | A498 > 100 µM | SK-MEL-2 33.8 µM | KM-20L2 > 100 µM | RXF 393 72.4 µM | UACC-257 27.1 µM | HL-60 33.3 µM | U-251 28 µM | MOLT-4 70.8 µM | LXFL 529 35.6 µM | RXF 631 > 100 µM | DMS-273 > 100 µM | NCI-H460 36.6 µM | HCT-116 57.7 µM | 786-0 > 100 µM | OVCAR-8 31.7 µM | CCRF-CEM 36.1 µM | DLD-1 49.5 µM | UACC-62 26.6 µM | SF-295 55.7 µM | SNB-75 93.5 µM | SNB-78 > 100 µM | OVCAR-4 60.4 µM | SN12C > 100 µM | SR 64.9 µM | SK-MEL-28 83.8 µM | NCI-H522 47.8 µM | HT-29 > 100 µM | KM12 38.6 µM | UO-31 29 µM | NCI-H23 75.2 µM | TK-10 > 100 µM | Malme-3M > 100 µM | SNB-19 65.8 µM | SK-MEL-5 19 µM | OVCAR-3 34.4 µM | LOX IMVI 35.6 µM

O=C(NC12CC3CCC1CC(C3)C2)[C@@H]1CCCN1C(=O)OCc1ccccc1 (stereo not given in full)
inactive: M14 85.9 µM | RPMI-8226 36.5 µM | OVCAR-5 > 100 µM | SF-539 > 100 µM | XF498 19.2 µM | HOP-18 > 100 µM | K562 33.7 µM | ACHN 44 µM | NCI-H226 58.9 µM | A549 50.4 µM | EKVX 69.5 µM | SF-268 94.8 µM | M19-MEL 83.6 µM | HCC 2998 85.9 µM | IGROV-1 > 100 µM | SW-620 77.3 µM | HOP-62 > 100 µM | SK-OV-3 65.3 µM | COLO 205 33.5 µM | A498 27.9 µM | SK-MEL-2 40.6 µM | KM-20L2 46.9 µM | RXF 393 16.8 µM | UACC-257 34.7 µM | HL-60 25.8 µM | DMS-114 50.4 µM | U-251 42.4 µM | MOLT-4 30.1 µM | LXFL 529 30.3 µM | DMS-273 49.8 µM | HOP-92 18.6 µM | HCT-116 58.9 µM | 786-0 76.7 µM | OVCAR-8 50.5 µM | CCRF-CEM 36.5 µM | DLD-1 56.9 µM | UACC-62 83.6 µM | SF-295 36.1 µM | SNB-75 26.7 µM | SNB-78 49.9 µM | SN12C 46.5 µM | SR 34.4 µM | SK-MEL-28 31.1 µM | NCI-H522 54.7 µM | HT-29 36.5 µM | KM12 48.4 µM | UO-31 24 µM | NCI-H23 43.3 µM | TK-10 85.5 µM | Malme-3M 37.5 µM | SNB-19 50.9 µM | OVCAR-3 89.5 µM | LOX IMVI 59 µM
44.2 µM: HCT-15

CCCCOC1CC2(c3ccc(OC)cc3)C(=O)c3ccccc3N2O1 (stereo not given)
inactive: M14 46.1 µM | RPMI-8226 18 µM | OVCAR-5 > 10 µM | CAKI-1 41.6 µM | SF-539 90.6 µM | XF498 > 10 µM | K562 26.5 µM | ACHN > 10 µM | NCI-H226 > 10 µM | A549 43.8 µM | EKVX 40.7 µM | SF-268 50.5 µM | M19-MEL > 10 µM | IGROV-1 > 10 µM | SW-620 65 µM | SK-OV-3 > 100 µM | COLO 205 27.1 µM | A498 > 10 µM | SK-MEL-2 71.6 µM | KM-20L2 > 10 µM | RXF 393 16.6 µM | UACC-257 16 µM | DMS-114 30 µM | U-251 > 10 µM | MOLT-4 19 µM | RXF 631 > 10 µM | DMS-273 > 10 µM | NCI-H460 > 10 µM | HCT-116 37.5 µM | 786-0 88.1 µM | OVCAR-8 82.2 µM | CCRF-CEM 31.5 µM | UACC-62 > 10 µM | SF-295 42.1 µM | SNB-75 > 100 µM | SNB-78 > 10 µM | SN12C > 10 µM | NCI-H522 21.3 µM | KM12 62.2 µM | UO-31 > 10 µM | TK-10 > 100 µM | Malme-3M 19.2 µM | SNB-19 > 10 µM | SK-MEL-5 31.7 µM | OVCAR-3 56.1 µM | LOX IMVI > 10 µM
> 10 µM: HCT-15
